Broadly, the Vd is the apparent volume that relates the amount in the body to the concentration in plasma or blood. Higher therefore signals extensive tissue distribution. By AUC(0-t) is commonly meant exposure summed from dosing to a finite time, without extrapolation to infinity. Low values mean low exposure, high ones high exposure. Broadly, the bioavailability is the share of a dose that reaches the circulation, judged against a reference dose that is usually intravenous. A higher bioavailability goes with much systemic uptake. By Tmax is commonly meant the time from dosing to the highest level. In general, MRT inf refers to the average time that molecules of a dose stay in the body. As usually defined, the AUC(0-inf) is the area under the concentration-time curve extrapolated to infinity. Low readings indicate less exposure, high ones more exposure. For orientation: Cmax means the highest concentration seen after dosing. For orientation: Papp means a coefficient for how fast a substance crosses the barrier.

≈ marks a conversion by molar mass, not a printed value.

Series [1] can be described thus: Kinetic solubility of the compound incubated for 1 hr by LC-UV or LC-MS/MS analysis. The class given is physicochemical. The following applies: read-out: Kinetic_solubility.
Series [2] is described as follows: Volume of distribution in dog at 1 mg/kg, iv. The class given is ADME, organism-based, Canis lupus familiaris. The following applies: in vivo.
Series [3] is described as follows: AUC (0 to t) in dog at 1 mg/kg, iv. The class given is ADME, organism-based, Canis lupus familiaris. The settings on record: in vivo.
Series [4] in a line: Oral bioavailability in dog at 2 mg/kg, iv. The class given is ADME, organism-based, Canis lupus familiaris. The settings on record: in vivo.
Series [5] is described as follows: Tmax in dog at 2 mg/kg, po. The class given is ADME, organism-based, Canis lupus familiaris. The settings on record: in vivo.
A short description of series [6]: MRT (0 to infinity) in dog at 1 mg/kg, iv. The class given is ADME, organism-based, Canis lupus familiaris. The settings on record: in vivo.
A short description of series [7]: AUC (0 to infinity) in dog at 1 mg/kg, iv. The class given is ADME, organism-based, Canis lupus familiaris. Also noted: dose 1 mg/kg, time infinity, route intravenous. The settings on record: in vivo.
Series [8] can be described thus: AUC (0 to infinity) in dog at 2 mg/kg, po. The following applies: in vivo. The class given is ADME, organism-based, Canis lupus familiaris. On the set-up: dose 2 mg/kg, time infinity, route oral.
A short description of series [9]: AUC (0 to t) in dog at 2 mg/kg, po. The class given is ADME, organism-based, Canis lupus familiaris. The settings on record: in vivo.
A short description of series [10]: Cmax in dog at 1 mg/kg, iv. The class given is ADME, organism-based, Canis lupus familiaris. On the set-up: dose 1 mg/kg, route intravenous. The settings on record: in vivo.
Series [11] is described as follows: Cmax in dog at 2 mg/kg, po. The class given is ADME, organism-based, Canis lupus familiaris. Also noted: dose 2 mg/kg, route oral. The settings on record: in vivo.
Series [12] is described as follows: Apparent permeability in human Caco2 cells. The settings on record: Caco-2. The class given is ADME, cell-based.
Series [13] in a line: Oral bioavailability in rat at 10 mg/kg. The class given is ADME, organism-based. The settings on record: in vivo.
Series [14] in a line: AUC (0 to t) in rat at 10 mg/kg, po. The class given is ADME, organism-based. The settings on record: in vivo.
Series [15] can be described thus: AUC (0 to infinity) in rat at 10 mg/kg, po. The class given is ADME, organism-based. Also noted: dose 10 mg/kg, route oral, time infinity. The following applies: in vivo.
The nature of series [16]: AUC (0 to t) in rat at 1 mg/kg, iv. The class given is ADME, organism-based. The following applies: in vivo.
The nature of series [17]: MRT (0 to infinity) in rat at 1 mg/kg, iv. The class given is ADME, organism-based. The settings on record: in vivo.
A short description of series [18]: Tmax in mouse at 10 mg/kg, po. The class given is ADME, organism-based. The following applies: in vivo.
Series [19] can be described thus: AUC (0 to t) in mouse at 2 mg/kg, iv. The class given is ADME, organism-based. The settings on record: in vivo.
The nature of series [20]: MRT (0 to infinity) in mouse at 10 mg/kg, po. The class given is ADME, organism-based. The following applies: in vivo.
Series [21] is described as follows: Tmax in rat at 10 mg/kg, po. The class given is ADME, organism-based. The settings on record: in vivo.
The nature of series [22]: Cmax in rat at 1 mg/kg, iv. The class given is ADME, organism-based. The settings on record: in vivo. Also noted: dose 1 mg/kg, route intravenous.
Series [23] can be described thus: Oral bioavailability in mouse at 10 mg/kg. The class given is ADME, organism-based. The settings on record: in vivo.
Series [24] can be described thus: AUC (0 to infinity) in mouse at 2 mg/kg, iv. The class given is ADME, organism-based. Also noted: dose 2 mg/kg, time infinity, route intravenous. The settings on record: in vivo.
The nature of series [25]: Volume of distribution in rat at 1 mg/kg, iv. The class given is ADME, organism-based. The following applies: in vivo.
A short description of series [26]: MRT (0 to infinity) in mouse at 2 mg/kg, iv. The settings on record: in vivo. The class given is ADME, organism-based.
The nature of series [27]: AUC (0 to t) in mouse at 10 mg/kg, po. The class given is ADME, organism-based. The settings on record: in vivo.
The nature of series [28]: Cmax in rat at 10 mg/kg, po. The class given is ADME, organism-based. Also noted: dose 10 mg/kg, route oral. The following applies: in vivo.
A short description of series [29]: Cmax in mouse at 2 mg/kg, iv. The class given is ADME, organism-based. On the set-up: dose 2 mg/kg, route intravenous. The following applies: in vivo.
A short description of series [30]: MRT (0 to infinity) in rat at 10 mg/kg, po. The class given is ADME, organism-based. The following applies: in vivo.
The nature of series [31]: Volume of distribution in mouse at 2 mg/kg, iv. The class given is ADME, organism-based. The settings on record: in vivo.
A short description of series [32]: AUC (0 to infinity) in mouse at 10 mg/kg, po. On the set-up: dose 10 mg/kg, time infinity, route oral. The class given is ADME, organism-based. The settings on record: in vivo.

For the compound `N#Cc1cc(Nc2nc(N)nc(-c3cccc(-n4ccc5cc(C6CC6)cc(F)c5c4=O)c3CO)n2)cn1C1CC1`, in [1], the solubility kinetic at 1 h came out at 4 µM (≈ 2.19 µg/mL).

For `Cn1cc(Nc2nc(N)nc(-c3cccc(-n4ccc5cc(C6CC6)cc(F)c5c4=O)c3CO)n2)cc1C#N`, the solubility kinetic at 1 h in series [1] worked out at 0.67 µM (≈ 0.35 µg/mL).

In the case of `Cn1cc(Nc2nc(N)nc(-c3cccc(-n4ccc5cc(C6CC6)cc(F)c5c4=O)c3CO)n2)cn1.O=S(=O)(O)O`, the Vd in series [2] is 0.29 L/kg. The AUC(0-t) was determined as 11300 ng·h/mL in series [3] and 9850 ng·h/mL in series [9]. In addition, the bioavailability in series [4] is 43.7%. In addition, in series [5], the Tmax came to 2 h. The compound also had an MRT inf in [6] of 3.31 h. The AUC(0-inf) in series [7] is 11500 ng·h/mL; in series [8], 10000 ng·h/mL. The Cmax in [10] turned out to be 4960 ng/mL; in [11], 2090 ng/mL.

`CC(C)n1cc(Nc2nc(N)nc(-c3cccc(-n4ccc5cc(C6CC6)cc(F)c5c4=O)c3CO)n2)cc1C#N`: in series [1], the solubility kinetic at 1 h worked out at 4.8 µM (≈ 2.64 µg/mL).

`CC(C1CC1)n1cc(Nc2nc(N)nc(-c3cccc(-n4ccc5cc(C6CC6)cc(F)c5c4=O)c3CO)n2)cn1` (configuration not stated): in series [1], the solubility kinetic at 1 h came to 2 µM (≈ 1.11 µg/mL).

Consider `COCCOCCn1cc(Nc2nc(N)nc(-c3cccc(-n4ccc5cc(C6CC6)cc(F)c5c4=O)c3CO)n2)cc1C#N`, for which the solubility kinetic at 1 h in series [1] is 9.5 µM (≈ 5.8 µg/mL).

Consider `Nc1nc(Nc2cn[nH]c2)nc(-c2cccc(-n3ccc4cc(C5CC5)cc(F)c4c3=O)c2CO)n1`, for which the solubility kinetic at 1 h in series [1] turned out to be 12 µM (≈ 5.81 µg/mL).

For `CCn1cc(Nc2nc(N)nc(-c3cccc(-n4ccc5cc(C6CC6)cc(F)c5c4=O)c3CO)n2)cc1C#N`, the solubility kinetic at 1 h in series [1] was 0.71 µM (≈ 0.381 µg/mL).

In the case of `Nc1nc(Nc2cnn(C3CC3)c2)nc(-c2cccc(-n3ccc4cc(C5CC5)cc(F)c4c3=O)c2CO)n1`, the solubility kinetic at 1 h in [1] was 4.7 µM (≈ 2.47 µg/mL).

For `CC(C)(C)c1ccc(C(=O)Nc2cccc(-c3nc(N)nc(Nc4ccc(N5CCOCC5)cc4)n3)c2CO)cc1`, the Papp in series [12] was 16.3 ×10⁻⁶ cm/s.

As to `Nc1nc(Nc2ccc(N3CCOCC3)cc2)nc(-c2cccc(-n3ccc4cc(C5CC5)cc(F)c4c3=O)c2CO)n1`, in series [1], the solubility kinetic at 1 h was found to be 1.2 µM (≈ 0.696 µg/mL).

Take `CC(C)(C)c1ccc(C(=O)Nc2cccc(-c3nc(N)nc(Nc4ccc(C(=O)N5CCOCC5)cc4)n3)c2CO)cc1`: in [12], the Papp amounted to 7.4 ×10⁻⁶ cm/s.

Consider `Cn1cc(Nc2nc(N)nc(-c3cccc(-n4ccc5cc(C6CC6)cc(F)c5c4=O)c3CO)n2)cn1` [SOFNOBRUTINIB], for which the bioavailability in series [13] was 44.4%; in series [23], 65.8%. The AUC(0-t) in [14] turned out to be 8700 ng·h/mL; in [16], 1920 ng·h/mL; in series [19], 3110 ng·h/mL; in [27] it was 10200 ng·h/mL. Also, the figures for the AUC(0-inf) in series [15], in series [24] and in series [32] were 8710 ng·h/mL, 3110 ng·h/mL and 10200 ng·h/mL, respectively. Also, the MRT inf in series [17] was 1.79 h; in [20], 1.56 h; in series [26], 1.3 h; in series [30] it was 4.88 h. Moreover, the time to peak (Tmax) came out at 0.5 h in series [18] and 2 h in [21]. Further, in series [1], the solubility kinetic at 1 h was 20 µM (≈ 9.97 µg/mL). Further, the Cmax was found to be 1380 ng/mL in [22], 1480 ng/mL in series [28] and 2890 ng/mL in [29]. For the same compound, the Vd in series [25] was determined as 1.1 L/kg; in [31] it was 3.03 L/kg.

The record behind these values is ChEMBL document CHEMBL4196213, “Design and Synthesis of Novel Amino-triazine Analogues as Selective Bruton's Tyrosine Kinase Inhibitors for Treatment of Rheumatoid Arthritis” (J Med Chem, 2018).
